Laboratory results: paper PMC11321677, “Reversing MET‐Mediated Resistance in Oncogene‐Driven NSCLC by MET‐Activated Wnt Condensative Prodrug” (Advanced Science, 2024)
Each block holds one molecule with its values, some of them ahead of it. Non-standard residues stand in square brackets, D forms with d. Residues, ends and D or L forms follow the SMILES beside them.

Legend:
PC-9 OE cell xenografts = assay: PC-9 OE NSCLC cell xenograft mouse model; assay type: in vivo, BALB/c nude mice; details: PC-9 OE xenograft, 3 mg kg−1 tail vein every two days, five injections
Excerpt: To evaluate the inhibitory impact of WntSI on the Wnt/β‐catenin pathway in vivo, we established a model of PC‐9 OE cell xenografts in BALB/c nude mice (Figure S12A, Supporting Information). […] In addition, we evaluated the drug safety of CA and WntSI, including recording the weight fluctuation of mice during the treatment period as well as the detection of hematological and biochemical indicators (Figure S12F–H, Supporting Information). […] Furthermore, we conducted IHC staining and IHC scoring (Figure 5F,G) to explore the expression of c‐Met, β‐catenin pathway‐associated proteins, as well as Ki67 in the tumor tissues. […] In addition, we closely monitored the fluctuations in body weight among the four groups of mice throughout the course of treatment (Figure 5H).
5×10^6 PC‐9 OE cells were subcutaneously injected into the right flanks of BALB/c nude mice aged 5–6 weeks. The tumor volume was calculated using the equation: volume = 1/2 × length × width^2. Once the tumor volume reached 150–180 mm^3, the mice were randomly grouped. The specific groups are as follows: 1) control (PBS), CA (3 mg kg^−1), and WntSI (3 mg kg^−1); the drug was administered via tail vein every two days for a total five injections; 2) control (normal saline), Gefitinib (25 mg kg^−1 d^−1), Gefitinib combined with Savolitinib (2.5 mg kg^−1 d^−1), and Gefitinib combined with WntSI (3 mg kg^−1, every two days) groups; normal saline, Gefitinib, and Savolitinib were administered by daily gavage, while WntSI was administered via tail vein injection every two days. Tumor growth was monitored daily, and xenografts were collected for formalin‐fixed‐paraffin embedded (FFPE) or snap frozen in liquid nitrogen for subsequent experiments.

[1] = system: PC-9 OE cells (MET overexpression); assay: alamarBlue cell viability; assay type: cell-based
Experimental: 1 × 10^8 transducing units (TU) of lentivirus were mixed with 40 µL of HitransG P (PC‐9) or HitransG A (NCI‐H1975) infection enhancement solution and 1 mL of complete medium to infect cells in a 6‐well plate.
In the presented cell experiments, Savolitinib was administered in combination with Gefitinib or Osimertinib at a concentration of 10 µM. The cell viability was determined by alamarBlue assay (Thermo Fisher Scientific).

c-Met = target: T1, c-Met (Homo sapiens, UniProt P08581); assay: Biotin affinity purification (pull-down) assay; assay type: binding; details: biotin-labeled Tyr-Pep on streptavidin magnetic beads, lysed PC-9 OE cells, 4 °C, 6 h, western blotting
T1 construct: host or cells: PC-9 OE (PC-9 cells stably transduced with MET OE lentivirus)
T1 sequence (P08581 25-1390): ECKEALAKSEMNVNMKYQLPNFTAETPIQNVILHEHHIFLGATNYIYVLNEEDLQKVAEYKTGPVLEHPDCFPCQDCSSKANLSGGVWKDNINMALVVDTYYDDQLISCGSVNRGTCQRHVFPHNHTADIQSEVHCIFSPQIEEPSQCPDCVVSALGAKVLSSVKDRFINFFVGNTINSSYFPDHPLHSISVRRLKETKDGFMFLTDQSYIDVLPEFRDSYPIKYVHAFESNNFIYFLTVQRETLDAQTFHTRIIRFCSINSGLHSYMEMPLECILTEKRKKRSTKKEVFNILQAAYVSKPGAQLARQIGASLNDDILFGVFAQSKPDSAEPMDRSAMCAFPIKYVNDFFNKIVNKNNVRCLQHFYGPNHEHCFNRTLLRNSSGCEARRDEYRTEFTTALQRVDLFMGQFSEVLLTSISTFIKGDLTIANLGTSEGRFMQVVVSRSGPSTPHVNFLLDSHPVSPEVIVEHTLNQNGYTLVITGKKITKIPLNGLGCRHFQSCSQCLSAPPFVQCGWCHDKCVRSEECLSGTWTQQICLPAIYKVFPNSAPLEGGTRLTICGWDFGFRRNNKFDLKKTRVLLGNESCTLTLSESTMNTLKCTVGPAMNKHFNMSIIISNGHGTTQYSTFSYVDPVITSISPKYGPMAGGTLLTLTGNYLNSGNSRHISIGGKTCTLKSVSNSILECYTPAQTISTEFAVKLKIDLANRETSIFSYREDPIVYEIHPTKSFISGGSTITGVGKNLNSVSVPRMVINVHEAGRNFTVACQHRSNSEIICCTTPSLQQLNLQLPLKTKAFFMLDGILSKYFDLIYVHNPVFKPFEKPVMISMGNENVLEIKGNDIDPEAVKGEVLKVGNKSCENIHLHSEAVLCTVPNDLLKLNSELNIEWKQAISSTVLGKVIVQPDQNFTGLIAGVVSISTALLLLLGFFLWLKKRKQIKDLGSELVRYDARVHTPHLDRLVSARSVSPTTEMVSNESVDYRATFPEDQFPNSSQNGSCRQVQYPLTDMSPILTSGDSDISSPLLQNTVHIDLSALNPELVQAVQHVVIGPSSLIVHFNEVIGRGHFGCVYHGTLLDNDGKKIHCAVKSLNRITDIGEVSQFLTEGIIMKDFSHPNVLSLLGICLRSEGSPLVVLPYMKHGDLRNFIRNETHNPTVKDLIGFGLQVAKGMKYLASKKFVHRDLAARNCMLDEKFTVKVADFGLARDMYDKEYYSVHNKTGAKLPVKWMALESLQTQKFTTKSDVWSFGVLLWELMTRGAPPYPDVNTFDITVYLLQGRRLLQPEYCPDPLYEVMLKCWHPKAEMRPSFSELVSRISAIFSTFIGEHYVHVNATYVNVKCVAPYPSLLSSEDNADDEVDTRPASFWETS
Excerpt: The process was successfully replicated through a coarse‐grained dynamic simulation involving the interaction between Tyr‐Pep and CA molecules, wherein the emergence of LLPS and subsequent self‐assembly into a condensate were observed (Figure 3B). […] Next, the mass ratio of 1:0.5 (Tyr‐Pep to CA) was selected for the preparation of the Wnt supramolecular inhibitor, WntSI, in order to maximize the utilization of condensate size for passive tumor targeting. […] Furthermore, the successful assembly of WntSI was once again confirmed by both Fourier‐transform infrared (FT‐IR) spectrum analysis (Figure S5C, Supporting Information) and UV–vis absorption spectrum analysis (Figure S5D, Supporting Information), providing compelling evidence through the presence of characteristic absorption peaks associated with peptide and CA. More importantly, as our design WntSI was constructed by a reversible supramolecular self‐assembly driven by LLPS, which can disassemble in response to MET (Figure 3A). Alpha Fold 2.0 accurately predicted the strong bonding ability between Tyr‐Pep and c‐Met, as depicted in Figure 3D. This prediction was further substantiated through co‐immunoprecipitation analysis involving biotin‐labeled Tyr‐Pep and c‐Met, as illustrated in Figure S5E (Supporting Information). […] The concentration of CA in their supernatant after centrifugation at 15 000 g was measured using HPLC. […]

[2] = system: PC-9 OE and NCI-H1975 OE cells; assay: Colony formation assay; assay type: cell-based; details: 7–10 days, n = 3
Experimental: The PC‐9 OE and NCI‐H1975 OE cells were seeded at a low density and cultured in serum‐rich medium containing drugs for 7–10 days to assess clone formation. Subsequently, the culture medium was discarded, and the cell colonies were fixed with methanol, stained with 0.1% crystal violet, and washed with distilled water until the background was clear. The number of colonies was quantified using Image J software.

- Weight growth rate of mice during treatment (PC-9 OE cell xenografts; n = 5): slowed down
SMILES: CC(C)c1cc2c(c(O)c1O)[C@@]1(C(=O)O)CCCC(C)(C)[C@@H]1CC2 [CA, carnosic acid]
- Levels of ALT and AST (PC-9 OE cell xenografts; n = 3): varying degrees of increase
- Levels of white blood cells (WBC), neutrophils and platelets (PC-9 OE cell xenografts; n = 3): significantly lower than those of the control group

SMILES: C[C@@H](c1ccc2nccn2c1)n1nnc2ncc(-c3cnn(C)c3)nc21 [Savolitinib]
- Impact on the susceptibility of EGFR-TKIs [1]: negligible impact

- Co-immunoprecipitation with c-Met (c-Met): can be recognized by c‐Met
SMILES: CC[C@H](C)[C@H](NC(=O)[C@H](CC(C)C)NC(=O)[C@H](CC(N)=O)NC(=O)[C@@H](NC(=O)[C@@H](CCC(=O)O)NC(=O)[C@@H](Cc1c[nH]cn1)NC(=O)[C@@H](CCC(=O)O)NC(=O)[C@@H](Cc1c[nH]cn1)NC(=O)[C@@H](CCC(=O)O)NC(=O)[C@H](N)Cc1c[nH]cn1)C(C)C)C(=O)N[C@@H](CC(N)=O)C(=O)N[C@@H](Cc1ccc(O)cc1)C(=O)N[C@@H](CCC(N)=O)C(=O)N[C@@H](CC(=O)O)C(=O)N[C@@H](CC(=O)O)C(=O)N[C@@H](C)C(=O)N[C@@H](CCC(=O)O)C(=O)N[C@@H](CC(C)C)C(=O)N[C@H](Cc1c[nH]cn1)C(=O)N[C@H](Cc1c[nH]cn1)C(=O)N[C@H](Cc1c[nH]cn1)C(=O)N[C@H](CCCNC(=N)N)C(=O)N[C@H](CCCNC(=N)N)C(=O)N[C@H](CCCNC(=N)N)C(=O)N[C@H](CCCNC(=N)N)C(=O)N[C@H](Cc1c[nH]cn1)C(N)=O [Tyr‐Pep] (H-[dH][dE][dH][dE][dH][dE]VNLINYQDDAEL[dH][dH][dH][dR][dR][dR][dR][dH]-NH2)
- Suppressive effect on clone formation [2]: no impact
